Read-outs that look alike come from different tables or passages of the source.
Key:
[1] = system: CXF1103 patient-derived colorectal cancer model; experiment: Xenograft anti-tumor efficacy; format: in vivo, mice; details: tumor weight, TPP-2090 10 mg/kg twice weekly for 4 weeks
Experimental: (§1) After tumor growth to a size of approximately 40 mm^2 mice were randomized into control and treatment groups with a respective group size of n=8-10. Mice were treated with various doses of anti-TWEAKR antibodies diluted in PBS by intravenous injection (i.v.) into the tail vein with a twice per week schedule (q4dx3: applications twice per week, three applications in total; q4dx8: applications twice per week, eight applications in total). Combination therapy partners such as Regorafenib (10 mg/kg daily, per os) and the PI3K-inhibitor 1 (10 mg/kg, BID, 2d on, 5d off (applications twice daily on two consecutive days, followed by five days without treatment), i.v.) were diluted in their respective formulations whereas the standard of care therapies Irinotecan (5 mg/kg, 4d on, 3d off (applications once daily on four consecutive days followed by three days without treatment) i.v.) and Paclitaxel (16 mg/kg, q7dx4 (applications once per week, four applications in total), i.v.) were diluted in 0.9% NaCl. Animals injected with PBS served as the control (vehicle) group. The applied volume of the compounds was 5 ml/kg body weight per mouse.
(§2) Tumor growth was monitored 2-3 times per week by caliper measurement (length×width in mm) as well as body weight (in g). At the end of study tumors were dissected, weighted and used for the calculation of tumor-to-control (T/C) ratios (mean tumor weight of treated animals divided by mean tumor weight of control/vehicle animals). […] 2×10^6 tumor cells in 100% Matrigel were s.c. inoculated in female nude mice. After 7d established tumors with a size of about 40 mm^2 were treated with 0.3 mg/kg, 1 mg/kg and 3 mg/kg of antibodies (i.v., q4dx3: applications twice per week, three applications in total).
(§3) Animal studies were conducted as described in example 8 for further human colorectal cancer tumor cell lines Colo205 and LoVo and for further human colorectal cancer patient-derived models Co7553, Co5896, Co5676, Co5841, CXF 1103 and CXF 533. […] The formulation of regorafenib is described in example 8.

[2] = system: CXF533 patient-derived colorectal cancer model; experiment: Xenograft anti-tumor efficacy; format: in vivo, mice; details: tumor weight, TPP-2090 10 mg/kg twice weekly for 4 weeks
Experimental: as §1, §2, §3

[3] = system: Co5676 patient-derived colorectal cancer model; experiment: Xenograft anti-tumor efficacy; format: in vivo, mice; details: tumor area, TPP-2090 10 mg/kg twice weekly for 4 weeks
Experimental: as §1, §2, §3

[4] = system: Co5841 patient-derived colorectal cancer model; experiment: Xenograft anti-tumor efficacy; format: in vivo, mice; details: tumor weight, TPP-2090 10 mg/kg twice weekly for 4 weeks
Experimental: as §1, §2, §3

[5] = system: Colo205 xenograft (colorectal cancer); experiment: Xenograft anti-tumor efficacy; format: in vivo, mice; details: tumor weight, TPP-2090 10 mg/kg twice weekly for 4 weeks
Experimental: as §1, §2, §3

[6] = system: LoVo xenograft (colorectal cancer); experiment: Xenograft anti-tumor efficacy; format: in vivo, mice; details: tumor weight, TPP-2090 10 mg/kg twice weekly for 4 weeks
Experimental: as §1, §2, §3

[7] = system: Co7553 patient-derived colorectal cancer model; experiment: Xenograft anti-tumor efficacy; format: in vivo, mice; details: tumor weight, TPP-2090 10 mg/kg twice weekly for 4 weeks
Text: Tumor growth was monitored 2-3 times per week by caliper measurement (length×width in mm) as well as body weight (in g). […]

[8] = target: T1, TWEAKR protein (TPP-2305) (Homo sapiens, UniProt Q9NP84); experiment: Biacore monovalent KD with TWEAKR protein; format: binding; details: first order 1:1 binding model
T1 construct: TPP-2305; hTNFRSF12Aaa28-80; Human; 30R-AT080; 168; purchased Fitzgerald Inc 30R-AT080
Experimental: Binding affinities of anti-TWEAKR antibodies were determined by surface plasmon resonance analysis on a Biacore T100 instrument (GE Healthcare Biacore, Inc.). Antibodies were immobilized onto a CM5 sensor chip through an indirect capturing reagent, anti-human IgG(Fc). Reagents from the “Human Antibody Capture Kit” (BR-1008-39, GE Healthcare Biacore, Inc.) were used as described by the manufacturer. Anti-TWEAKR antibodies were injected at a concentration of 10 μg/ml at 10 μl/min for 10 sec.
Sensorgrams were generated after in-line reference cell correction followed by buffer sample subtraction. The dissociation equilibrium constant (KD) was calculated based on the ratio of association (kon) and dissociation rated (koff) constants, obtained by fitting sensorgrams with a first order 1:1 binding model.

[9] = target: T2, TWEAKR-Fc fusion protein (TPP-2202), aa 28-80 (Homo sapiens, UniProt Q9NP84); experiment: ELISA with TWEAKR full ectodomain; format: binding; details: coating 1 μg/ml; 0.08 and 0.3 μg/ml biotinylated IgG
T2 construct: the full ectodomain 28-80 including the N- and C-terminus; made in house
Text: (§4) In a first approach to characterize the binding epitope of the aforementioned antibodies, a N- and C-terminal truncation mutant of the TWEAKR ectodomain was generated and tested for its ability to bind to the different anti-TWEAKR antibodies. N-terminally, amino acids 28 to 33 and C-terminally amino acids 69 to 80 were deleted, thus the cysteine rich domain with disulfide bridges between Cys36-Cys49, Cys52-Cys67 and Cys55-Cys64 remains intact (compare FIG. 2). Both constructs, the full ectodomain 28-80 including the N- and C-terminus and the truncated ectodomain 34-68 were expressed and purified as Fc fusion proteins TPP-2202 and TPP-2203, respectively.
(§5) To analyze for binding, 1 μg/ml of the respective dimeric TWEAKR-Fc construct were coated and, 0.3 μg/ml and 0.08 μg/ml of biotinylated IgG were used as soluble binding partner. Detection was done with Streptavidin-HRP and Amplex-Red substrate. IgGs were biotinylated using an approximately 2-fold molar excess of biotin-LC-NHS (Pierce; Cat. No. 21347) according to manufacturer's instructions and desalted using Zeba desalting columns (Pierce; Cat. No. 89889).

[10] = target: T3, TWEAKR(34-68)-Fc fusion protein (TPP-2203) (Homo sapiens, UniProt Q9NP84); experiment: ELISA with TWEAKR cysteine rich domain; format: binding; details: coating 1 μg/ml; 0.08 and 0.3 μg/ml biotinylated IgG
T3 construct: the truncated ectodomain 34-68 were expressed and purified as Fc fusion proteins; made in house
Text: as §4, §5

[11] = target: T4, TWEAKR(28-68)-HIS (TPP-1984) (Homo sapiens, UniProt Q9NP84); experiment: ELISA with C-terminally truncated TWEAKR ectodomain; format: binding; details: coating 1 μg/ml; 0.08 and 0.3 μg/ml biotinylated IgG
T4 construct: Extracellular domain with C-terminal truncation (28-68) fused to HIS6 tag; made in house
Experimental: as §5

Lovo cells = experiment: Inhibition of proliferation (Cell Titer Glo); format: cell-based, human; details: 72h, 100 μg/ml antibody or *100 ng/ml TWEAK
Experimental: (§6) Therefore cells were plated in 96well plates in 750 assay medium (growth media from Table 21, plus 100 ng/ml IFN gamma for 786-O cells) at the following cell numbers: WiDr cells 3000 cells/well, 786-O cells 2500 cells/well. 24 h later cells were incubated with anti-TWEAKR antibodies (see Table 26), recombinant human TWEAK or isotype control IgG (not shown) at the indicated concentrations (antibodies from 0.03-300 μg/ml, TWEAK 100 or 300 ng/ml). At the time of antibody addition cell viability was determined in sister plates (time point zero): therefore 750/well CTG solution (Promega Cell Titer Glo solution (catalog # G755B and G756B) was added to the cells, incubated for 10 minutes and luminescence was read on a Victor V (Perkin Elmer). 96 h after incubation with the agents, cell viability was determined in the assay plates by addition of 100 μl/well CTG solution, 10 min incubation and reading of luminescence. Proliferation in control wells was calculated by subtracting time zero values from the luminescence values in the untreated control wells. % of cell proliferation was calculated in the compound treated wells as compared to the untreated control wells.
(§7) To evaluate, whether this strong anti-proliferative activity can also be observed in a broader cell panel, in addition LOVO, NCI-H1975, SW-480 (all 3000 cells/well), HT-29 (4000 cells/well), A253 and SK-OV3 (both 2500 cells/well) cells were incubated with 100 μg/ml anti-TWEAKR antibodies or TWEAK ligand for the time periods as indicated in Table 27. All cells were seeded in the growth media indicated in Table 21 and for all cells except for WiDr cells 100 ng/ml IFNgamma was added to the assay medium when seeding the cells. The percentage of growth inhibition for treated cells as compared to proliferation in untreated control cells was measured and calculated as described above. As shown in Table 27 the antibodies of the current invention are more efficacious as compared to other known antibodies in inhibiting proliferation of various cancer cell lines at 100 μg/ml. In most experiments the antibodies of the current invention also show equal or stronger efficacy as compared to 100-300 ng/ml TWEAK ligand. Thus, the antibodies described in this invention are unique in their activity to induce apoptosis and proliferation inhibition in a broad panel of cancer cell lines.

NCI-H1975 cells = experiment: Inhibition of proliferation (Cell Titer Glo); format: cell-based, human; details: 72h, 100 μg/ml antibody or *100 ng/ml TWEAK
Experimental: as §6, §7

SW480 cells = experiment: Inhibition of proliferation (Cell Titer Glo); format: cell-based, human; details: 72h, 100 μg/ml antibody or *100 ng/ml TWEAK
Experimental: as §6, §7

TWEAKR = TWEAKR (Homo sapiens, UniProt Q9NP84); details: published data, read-out: KD / binding affinity to TWEAKR (published), cited from earlier work

| Compound | Final T/C [1] | Final T/C [2] | Final T/C [3] | Final T/C [4] | Final T/C [5] | Final T/C [6] | Final T/C [7] | ka [8] [M⁻¹ s⁻¹] | kd [8] [s⁻¹] | ELISA binding to full ectodomain (28-80) [9] | ELISA binding to N- and C-terminally truncated construct (34-68) [10] | ELISA binding to C-terminally truncated ectodomain (28-68) [11] | % Inhibition of proliferation (Lovo cells) [%] | % Inhibition of proliferation (NCI-H1975 cells) [%] | % Inhibition of proliferation (SW480 cells) [%] | Kd (TWEAKR; listed as BIIB036/P4A8) [nM] | Kd (TWEAKR) [nM] |
| --- | --- | --- | --- | --- | --- | --- | --- | --- | --- | --- | --- | --- | --- | --- | --- | --- | --- |
| O=c1[nH]cc(F)c(=O)[nH]1 [5-FU, 5-fluorouracil] | 0.97 | 0.28 | 0.45 | 0.48 |  |  |  |  |  |  |  |  |  |  |  |  |  |
| CCc1c2c(nc3ccc(OC(=O)N4CCC(N5CCCCC5)CC4)cc13)-c1cc3c(c(=O)n1C2)COC(=O)[C@]3(O)CC [Irinotecan] | 0.66 |  | 0.37 | 0.17 | 0.47 | 0.52 | 0.11 |  |  |  |  |  |  |  |  |  |  |
| O=C1[O][Pt]2([NH][C@@H]3CCCC[C@H]3[NH]2)[O]C1=O [Oxaliplatin, oxaliplatin] | 1.29 | 1.08 |  | 0.81 | 0.89 | 0.76 | 0.78 |  |  |  |  |  |  |  |  |  |  |
| P4A8(TPP-1324): reference agonistic anti-TWEAKR antibody, human IgG1, variable domains from WO2009/140177; SEQ ID NO 125/126 [reference compound] |  |  |  |  |  |  |  | 1.2e+06 | 0.0027 | saturated binding | impaired binding | impaired binding | −5 | 20 | 5 | 1.7 | 2.6 |

— patent US20160237160A1, “ANTI-TWEAKR ANTIBODIES AND USES THEREOF” (BAYER PHARMA AKTIENGESELLSCHAFT, priority 2013, published 2016)
